# Experimental data: ChEMBL document CHEMBL3885881, “DrugMatrix”
# How the values were obtained:
# [1] = species on record: Rattus norvegicus; assay: DrugMatrix - Regimen: Daily Repeat; assay type: toxicity, organism-based, Sprague-Dawley; set-up: regimen Daily Repeat, gender Male, age 6-8 weeks; settings: in vivo, po, 1868 mg/kg, […], route oral GAVAGE, dose level High, vehicle .5 % CMC; for ALANINE AMINOTRANSFERASE / ALBUMIN / ALKALINE PHOSPHATASE / ASPARTATE AMINOTRANSFERASE / BLOOD UREA NITROGEN / CARBON DIOXIDE / CHLORIDE / CHOLESTEROL / CREATININE / GLUCOSE / LACTATE DEHYDROGENASE / LIPASE / PHOSPHORUS / POTASSIUM / SODIUM / TOTAL BILIRUBIN / TOTAL PROTEIN / URIC ACID: tissue Plasma
# [2] = species on record: Rattus norvegicus; assay type: toxicity, organism-based, Sprague-Dawley; settings: in vivo, po, 1868 mg/kg, 24 h, route oral GAVAGE, dose level High, time 1 day, vehicle .5 % CMC
# Description: DrugMatrix - Regimen: Single
structure (smiles),measurement,setting,value
CC(=O)OCc1ccccc1 [E1501],PLATELET COUNT,"[1]; tissue Blood, time 11 day",822 x10E3/uL
same,ABSOLUTE BASOPHIL,"[1]; tissue Blood, time 14 day",0 CELLS/uL
same,ABSOLUTE EOSINOPHIL,"[1]; tissue Blood, time 14 day",388 CELLS/uL
same,ABSOLUTE LYMPHOCYTE,"[1]; tissue Blood, time 14 day",14397 CELLS/uL
same,ABSOLUTE MONOCYTE,"[1]; tissue Blood, time 14 day",529.5 CELLS/uL
same,ABSOLUTE SEGMENTED NEUTROPHIL,"[1]; tissue Blood, time 14 day",1785.5 CELLS/uL
same,BASOPHIL,"[1]; tissue Blood, time 14 day",0%
same,EOSINOPHIL,"[1]; tissue Blood, time 14 day",2%
same,ERYTHROCYTE COUNT,"[1]; tissue Blood, time 14 day",6.34 x10E6/uL
same,HEMATOCRIT,"[1]; tissue Blood, time 14 day",38%
same,HEMOGLOBIN,"[1]; tissue Blood, time 14 day",13.85 G/DL
same,LEUKOCYTE COUNT,"[1]; tissue Blood, time 14 day",17.1 x10E3/uL
same,LYMPHOCYTE,"[1]; tissue Blood, time 14 day",85%
same,MEAN CORPUSCULAR HEMOGLOBIN,"[1]; tissue Blood, time 14 day",21.9 pg
same,MEAN CORPUSCULAR HEMOGLOBIN CONCENTRATION,"[1]; tissue Blood, time 14 day",36.35 G/DL
same,MEAN CORPUSCULAR VOLUME,"[1]; tissue Blood, time 14 day",60.15 fL
same,MONOCYTE,"[1]; tissue Blood, time 14 day",3.5%
same,NEUTROPHIL,"[1]; tissue Blood, time 14 day",9.5%
same,NUCLEATED RED BLOOD CELLS,"[1]; tissue Blood, time 14 day",0 /100WBC
same,PLATELET COUNT,"[1]; tissue Blood, time 14 day",722 x10E3/uL
same,ALANINE AMINOTRANSFERASE,[1]; time 11 day,128 u/L
same,ALBUMIN,[1]; time 11 day,3.9 G/DL
same,ALKALINE PHOSPHATASE,[1]; time 11 day,284 u/L
same,ASPARTATE AMINOTRANSFERASE,[1]; time 11 day,640 u/L
same,BLOOD UREA NITROGEN,[1]; time 11 day,44 mg/dL
same,CARBON DIOXIDE,[1]; time 11 day,31 mmol/L
same,CHLORIDE,[1]; time 11 day,95 MEQ/L
same,CHOLESTEROL,[1]; time 11 day,70 mg/dL
same,CREATININE,[1]; time 11 day,0.26 mg/dL
same,GLUCOSE,[1]; time 11 day,191 mg/dL
same,LACTATE DEHYDROGENASE,[1]; time 11 day,656 u/L
same,LIPASE,[1]; time 11 day,9 u/L
same,PHOSPHORUS,[1]; time 11 day,14.5 mg/dL
same,POTASSIUM,[1]; time 11 day,4.9 MEQ/L
same,SODIUM,[1]; time 11 day,146.3 MEQ/L
same,TOTAL BILIRUBIN,[1]; time 11 day,0.1 mg/dL
same,TOTAL PROTEIN,[1]; time 11 day,5.4 G/DL
same,URIC ACID,[1]; time 11 day,1.7 mg/dL
same,ALANINE AMINOTRANSFERASE,[1]; time 14 day,76.5 u/L
same,ALBUMIN,[1]; time 14 day,4.3 G/DL
same,ALKALINE PHOSPHATASE,[1]; time 14 day,267 u/L
same,ASPARTATE AMINOTRANSFERASE,[1]; time 14 day,238 u/L
same,BLOOD UREA NITROGEN,[1]; time 14 day,19 mg/dL
same,CARBON DIOXIDE,[1]; time 14 day,21.5 mmol/L
same,CHLORIDE,[1]; time 14 day,102.5 MEQ/L
same,CHOLESTEROL,[1]; time 14 day,79 mg/dL
same,CREATININE,[1]; time 14 day,0.27 mg/dL
same,GLUCOSE,[1]; time 14 day,207 mg/dL
same,LACTATE DEHYDROGENASE,[1]; time 14 day,251.5 u/L
same,LIPASE,[1]; time 14 day,9 u/L
same,PHOSPHORUS,[1]; time 14 day,11.95 mg/dL
same,POTASSIUM,[1]; time 14 day,5.28 MEQ/L
same,SODIUM,[1]; time 14 day,152.2 MEQ/L
same,TOTAL BILIRUBIN,[1]; time 14 day,0.25 mg/dL
same,TOTAL PROTEIN,[1]; time 14 day,6.5 G/DL
same,URIC ACID,[1]; time 14 day,1.95 mg/dL
same,ABSOLUTE EOSINOPHIL,[2]; tissue Blood,109.33 CELLS/uL
same,ABSOLUTE LYMPHOCYTE,[2]; tissue Blood,12916.67 CELLS/uL
same,ABSOLUTE MONOCYTE,[2]; tissue Blood,245.33 CELLS/uL
same,ABSOLUTE SEGMENTED NEUTROPHIL,[2]; tissue Blood,1062 CELLS/uL
same,BASOPHIL,[2]; tissue Blood,0%
same,EOSINOPHIL,[2]; tissue Blood,0.67%
same,ERYTHROCYTE COUNT,[2]; tissue Blood,5.87 x10E6/uL
same,HEMATOCRIT,[2]; tissue Blood,35.33%
same,HEMOGLOBIN,[2]; tissue Blood,12.87 G/DL
same,LEUKOCYTE COUNT,[2]; tissue Blood,14.33 x10E3/uL
same,LYMPHOCYTE,[2]; tissue Blood,90.67%
same,MEAN CORPUSCULAR HEMOGLOBIN,[2]; tissue Blood,21.93 pg
same,MEAN CORPUSCULAR HEMOGLOBIN CONCENTRATION,[2]; tissue Blood,36.4 G/DL
same,MEAN CORPUSCULAR VOLUME,[2]; tissue Blood,60.27 fL
same,MONOCYTE,[2]; tissue Blood,1.67%
same,NEUTROPHIL,[2]; tissue Blood,7%
same,NUCLEATED RED BLOOD CELLS,[2]; tissue Blood,0 /100WBC
same,PLATELET COUNT,[2]; tissue Blood,831 x10E3/uL
same,ALANINE AMINOTRANSFERASE,[2]; tissue Plasma,51 u/L
same,ALBUMIN,[2]; tissue Plasma,4.13 G/DL
same,ALKALINE PHOSPHATASE,[2]; tissue Plasma,348.67 u/L
same,ASPARTATE AMINOTRANSFERASE,[2]; tissue Plasma,87 u/L
same,BLOOD UREA NITROGEN,[2]; tissue Plasma,12.33 mg/dL
same,CARBON DIOXIDE,[2]; tissue Plasma,26 mmol/L
same,CHLORIDE,[2]; tissue Plasma,101.67 MEQ/L
same,CHOLESTEROL,[2]; tissue Plasma,53 mg/dL
same,CREATININE,[2]; tissue Plasma,0.24 mg/dL
same,GLUCOSE,[2]; tissue Plasma,189 mg/dL
same,LACTATE DEHYDROGENASE,[2]; tissue Plasma,338.67 u/L
same,LIPASE,[2]; tissue Plasma,10 u/L
same,PHOSPHORUS,[2]; tissue Plasma,14.53 mg/dL
same,POTASSIUM,[2]; tissue Plasma,6.76 MEQ/L
same,SODIUM,[2]; tissue Plasma,145.77 MEQ/L
same,TOTAL BILIRUBIN,[2]; tissue Plasma,0.13 mg/dL
same,TOTAL PROTEIN,[2]; tissue Plasma,6.1 G/DL
same,URIC ACID,[2]; tissue Plasma,2.13 mg/dL
